This is an account of results in patent EP0597004B1, “THE USE OF DIOXAPYRROLOMYCIN AS AN ANTIPARASITIC AGENT AND COMPOSITIONS USEFUL THEREFOR” (PHARMACIA & UPJOHN COMPANY, priority 1991, dated 1993).

Where “and” joins values, the source holds several entries; their conditions need not be identical. Equal entries are not always repeated. Structures can show the parent of a compound that is named as a salt. Where two headings read alike, the source gives them in different places.

The subject of data set [1] is Haemonchus contortus. The experiment in a line: Haemonchus contortus / jird assay (clearance from experimentally infected jirds). In kind it is in vivo. The settings on record: necropsy day 13 PI; for Percentage Clearance Susceptible: susceptible strain; for Percentage Clearance H. contortus: purity ∼100%. The procedure:
(§1) This in vivo assay utilizes jirds infected with two important target parasites of ruminants, H. contortus and T. colubriformis (anthelmintic-sensitive or -resistant worms can be used). Initially, activity is assessed only against H. contortus as described in G.A. Conder et. al., J. Parasitol. 76:168-170 (1990), while follow-up studies examine activity against both species of parasites using the techniques outlined in G.A. Conder et al., J. Parsitol. 77:168-170 (1991).

Data set [2] has as its system levamisole/benzimidazole-resistant Haemonchus contortus. As to the kind of experiment: Jird assay with levamisole/benzimidazole-resistant strain (cross-resistance). The settings on record: jirds, necropsy day 13 PI. The class given is in vivo.
Source text: (§2) Having shown potent activity against H. contortus in sheep, dioxapyrrolomycin was examined for cross-resistance to the three major classes of broad-spectrum anthelmintics (ivermectin, levamisole, and benzimidazoles) using jirds infected with resistant strains of H. contortus. […] In vitro, the dioxapyrrolomycin dose required to affect a closantel-resistant strain of H. contortus is approximately seventeen times that required for the susceptible strain.
as §1

For data set [3], the system named is ivermectin-resistant Haemonchus contortus. As to the kind of experiment: Jird assay with ivermectin-resistant strain (cross-resistance). In kind it is in vivo. The conditions noted are these: jirds, necropsy day 13 PI.
Source text: as §2, §1

Data set [4] has as its system Caenorhabditis elegans. As to the kind of experiment: Caenorhabditis elegans in vitro assay. The conditions noted are these: free-living nematode. The source says: The free-living nematode C. elegans in vitro assay has been described extensively in the literature, for example, K.G. Simpkin and G.C. Coles, J. Chem. Tech. Biotechnol., 31:66-69 (1981).
Dioxapyrrolomycin is active in the C. elegans assay at 0.825 ppm.

In data set [5] the test system is Trichostrongylus colubriformis. As to the kind of experiment: Trichostrongylus colubriformis / jird assay (clearance from experimentally infected jirds). The class given is in vivo. The settings on record: necropsy day 13 PI, purity ∼100%. The procedure:
as §1

Data set [6] deals with Haemonchus contortus. The experiment in a line: Haemonchus contortus / sheep assay (clearance from monospecifically infected lambs). In kind it is in vivo. The settings on record: necropsy day 42 PI. On the procedure:
Purpose bred, helminth-free lambs are procured. Upon arrival, the lambs are treated with ivermectin (0.2 mg/kg, subcutaneously), vaccinated for sore mouth, and placed in a single, community pen. Three weeks later each lamb is treated with levamisole hydrochloride (8.0 mg/kg per os). Two weeks after treatment with levamisole, all lambs are inoculated per os with ∼ 7,500 infective larvae of H. contortus. Rectal fecal samples are taken from each lamb 1 to 3 days prior to infection and these are examined using the double centrifugation technique to verify that the animals are free of trichostrongyles prior to infection. […] Remaining lambs are treated per os on day 35 PI; 4-5 animals receive vehicle only. Prior to administration, test materials are prepared in a manner suitable for the substance being examined. All lambs are monitored for toxic signs following treatment. Lambs are killed 7 days after treatment (day 42 PI), and the abomasum is ligated and removed from each animal. Each abomasum is opened longitudinally and the contents rinsed into an 80 mesh sieve. Sieve contents are collected in individual containers and fixed in formol-alcohol. Later each sample is transferred to a 1,000 ml graduated cylinder and the volume brought to 400 - 1000 ml with tap water. The total number of worms in a 10% aliquot is determined. If no worms are found in the 10% aliquot, the entire sample is examined. Total worm number/lamb and percentage clearance for each treatment are calculated. Percentage clearance is determined according to the following formula: Percentage clearance = [(Mean number of worms recovered from vehicle control lambs - number of worms recovered from treated lamb)/mean number of worms recovered from vehicle control lambs] x 100.

The subject of data set [7] is closantel-resistant strain of H. contortus. As to the kind of experiment: In vitro cross-resistance with closantel-resistant strain. Set-up: species or system Haemonchus contortus. The conditions noted are these: closantel-resistant vs susceptible H. contortus.
Source text: as §2

The conditions of data set [8]: mice, cited from earlier work.
[9] abbreviates: 0.012 mg/jird per os on day 10 PI.
[10] abbreviates: 0.11 mg/jird per os on day 10 PI.
The mark [11] stands for this setting: 0.11 mg/jird per os day 10 PI, purity 95%.

As for `c1ccc([C@H]2CN3CCSC3=N2)cc1` [Levamisole hydrochloride], the “Percentage Clearance Susceptible” value in data set [1] (0.4 mg/jird per os day 10 PI) is “∼95.0%”. The “Percentage Clearance Levamisole/Benzimidazole Resistant” value in data set [2] (0.4 mg/jird per os day 10 PI) is given as 51.7%. Besides, the “Percentage Clearance Ivermectin Resistant” value in data set [3] (0.4 mg/jird per os day 10 PI) stood at 96.4%.
With Ivermectin, the “Percentage Clearance Susceptible” value in data set [1] (0.005 mg/jird per os day 10 PI) is reported as “∼95.0%”. Also, the “Percentage Clearance Levamisole/Benzimidazole Resistant” value in data set [2] (0.005 mg/jird per os day 10 PI) came out at 98.6%. Moreover, the “Percentage Clearance Ivermectin Resistant” value in data set [3] (0.005 mg/jird per os day 10 PI) is 18.7%.
`O=[N+]([O-])c1c([C@H]2OCOc3c(Cl)cc(Cl)cc32)[nH]c(Cl)c1Cl` [Dioxapyrrolomycin, dioxapyrrolomycin]: in data set [4], the “active in the C. elegans in vitro assay at” value is 0.825 ppm. Moreover, the “Percentage Clearance H. contortus” value is recorded as 45.8% in data set [1] (setting [9]), 96.4% in data set [1] (0.037 mg/jird (= 0.925 mg/kg) per os on day 10 PI) and 100% in data set [1] (setting [10]). In data set [1] (setting [11]), the “Percentage Clearance Susceptible” value came to 95.8%. Further, the “Percentage Clearance T. colubriformis” value in data set [5] (setting [9]) is 48.8%; in data set [5] (0.037 mg/jird per os on day 10 PI), 17.2%; in data set [5] (setting [10]), 0%; in data set [5] (0.33 mg/jird (= 8.25 mg/kg) per os on day 10 PI), 41.5%. In addition, the “Percentage Clearance” value in data set [6] (0.78 mg/kg per os on day 35 PI) is 44.0%; in data set [6] (1.56 mg/kg per os on day 35 PI), 92.2%; in data set [6] (3.125 mg/kg per os on day 35 PI, 3.125 mg/kg), 99.7% and 99.9%; in data set [6] (6.25 mg/kg per os on day 35 PI) it was 99.9%; in data set [6] (12.5 mg/kg per os on day 35 PI) it was 100%. Moreover, the “Percentage Clearance Levamisole/Benzimidazole Resistant” value in data set [2] (setting [11]) came out at 98.6%. The “Percentage Clearance Ivermectin Resistant” value in data set [3] (setting [11]) is listed as 92.7%. For the same compound, the “dose required to affect a closantel-resistant strain relative to that required for the susceptible strain” value in data set [7] is listed as “approximately seventeen”. Also, the 50% lethal dose (LD50) was 125 to 250 mg/kg in data set [8] (ip) and 13 mg/kg in data set [8] (po).
For the compound `CCCSc1ccc2nc(NC(=O)OC)[nH]c2c1` [Albendazole, reference compound], the “Percentage Clearance Susceptible” value in data set [1] (0.075 mg/jird per os day 10 PI) is given as “∼95.0%”. Also, the “Percentage Clearance Levamisole/Benzimidazole Resistant” value in data set [2] (0.075 mg/jird per os day 10 PI) was determined as 36.2%.

By LD50 is commonly meant the dose at which mortality reaches 50%.
